The source of these data is article PMC10900488, “Synthesis and Evaluation of (Bis)benzyltetrahydroisoquinoline Alkaloids as Antiparasitic Agents” (JACS Au, 2024).

One series concerns T. cruzi amastigotes. In words: Antiamastigote assay (T. cruzi), ex vivo intracellular model using mice macrophages, microscopy. The format is cell-based, Trypanosoma (T.) cruzi. To be noted: Trypanosoma cruzi, Peritoneal macrophage, 48 h, ± SD, read-out: T. cruzi IC50 amastigotes.
The nature of series [1]: Mammalian toxicity, MTT colorimetric. The format is cell-based, murine. To be noted: mouse.
Series [2] has as its system L. mexicana promastigotes. The series is described as follows: Growth studies, 24 h promastigote culture. The format is cell-based, Leishmania (L.) mexicana. As for the experimental part: Preliminary investigations into the mechanism of action for compounds (S)-9a, (S)-9b and (S,R)-11 were carried out using L. mexicana promastigotes. Light microscopy-based techniques were employed to further explore compound activity in a different, related Leishmania species. […] A solvent-only control using 0.1% (v/v) DMSO led to no significant effects. Cell cultures were examined by light microscopy to identify any morphological changes resulting from compound treatment (Figure 2B). […] Cells treated with the BI and BBI compounds develop a changed morphology with a spherical cell body or shortened flagellum. This effect is observed in 25% of the population for compound (S)-9a, to a greater extent (66%) for (S)-9b, and 27% for compound (S,R)-11. An abnormal number and position of Ks and Ns were often observed, with Ks and Ns sometimes less well-defined by Hoechst 33342 staining.
NCTC cells (6 × 10^4/well) were added to a 96-well plate. Treatments of the cells with selected compounds (serially diluted 1.5 to 200 μM) was performed in a humidified incubator for 96 h at 37 °C and with 5% CO2.
The MTT colorimetric method was used to determine the 50% cytotoxic concentration (CC50) and the selectivity index (CC50 against NCTC cells/IC50 against amastigotes).15 […]
[…] […] Statistical significance was derived from a two-tailed T-test.
The Graph Pad Prism 5 software was used to perform sigmoid dose-response curves for the determination of […]
[…] At 6 h and 24 h post-treatment, a 1 mL aliquot was taken for imaging. The cell cycle experiment was preformed twice independently.
Generation of mNG::RAD51 tagged cell line
The single-stranded DNA-binding protein RAD51, associated with DNA Repair, LmxM.28.0550 was tagged with endogenous fluorescent protein mNeonGreen (mNG) at the N-terminus. […]
Primers for constructs and sgRNA were designed using LeishGEdit (http://www.leishGEdit.net).
PCR was at 94 °C for 5 min, followed by 35 cycles at 94 °C (15 sec), 65 °C (15 sec), 72 °C (2 min) then finally 72 °C (1 min). […]

Molecules are shown by their SMILES.

The IC50 is the concentration that inhibits the measured activity by half. The CC50 is the concentration that lowers cell viability or growth by half. Regarding `COc1cc2c(cc1OC)[C@H](Cc1ccc(OC)c(OCc3ccccc3)c1)N(C)CC2` [(S)-9b], the IC50 with T. cruzi amastigotes stood at 12.2 ± 0.5 µM. In series [1], the CC50 at 96 h turned out to be 47.1 ± 11.2 µM. Besides, the “concentration sufficient to inhibit growth over 24 h” value in series [2] was found to be 50 µM.
As to `COc1cc2c(cc1OC)[C@@H](Cc1ccc(Oc3cc(C[C@H]4c5cc(OC)c(OC)cc5CCN4C)ccc3OC)cc1)N(C)CC2` [(S,R)-11, (−)-O,O′-dimethylgrisabine], in the series on T. cruzi amastigotes, the IC50 is 2.2 ± 0.7 µM. The molecule further registered a CC50 at 96 h in series [1] of 10.2 ± 1.4 µM. In series [2], the “potency in growth inhibition relative to (S)-9a and (S)-9b” value is given as 10 fold.
For the molecule `COc1cc2c(cc1OC)[C@H](Cc1ccc(Br)cc1)N(C)CC2` [(S)-9a], the IC50 in the series with T. cruzi amastigotes was 25.1 ± 3.1 µM. In series [1], this molecule yielded a CC50 at 96 h of 42.5 ± 1.5 µM. Also, the “concentration sufficient to inhibit growth over 24 h” value in series [2] was determined as 50 µM.
